Laboratory results published in patent US9169240B2, “Ketone linked benzothiazole inhibitors of endothelial lipase” (BRISTOL-MYERS SQUIBB COMPANY, priority 2012, dated 2015).

Biological target: Endothelial lipase (EL) (Homo sapiens (Human), UniProt Q9Y5X9)
Experiment: Endothelial lipase (EL) activity assay with fluorescent substrate A10070 in DMPG vesicles
Format: biochemical
Description: Endothelial lipase activity was measured using a fluorescent substrate, A10070, (Invitrogen, CA) doped into an artificial vesicle containing DMPG (Avanti Polar Lipids) as the excipient. Vesicles were prepared by combining 285 μL of 1 mM DMPG in a 1:1 mixture of MeOH and CHCl3 with 15 μL of 1 mM A10070 in a 1:1 mixture of MeOH and CHCl3. The mixture was dried under nitrogen and resuspended in 150 μL of 50 mM HEPES pH 8.0 buffer containing 100 mM NaCl and 0.2 mM EDTA. The sample was allowed to sit at rt for 15 min and then was sonicated 3×4 mins on ice with a Branson Sonicator using duty cycle 1. This preparation provides vesicles with a mole fraction of 0.05 for the FRET substrate.
The enzymatic assay was measured using white, opaque 96-well half area plates. Each well contained 60 μL of assay buffer (50 mM HEPES pH 8.0, 50 mM NaCl and 1 mM CaCl2) and 2 ul of a DMSO solution containing compound of interest. Conditioned media obtained from HT-1080 cells, which were transformed by RAGE technology (Athersys) to overexpress endogenous EL, was added and the reaction was allowed to incubate for 20 min at 37° C. with gentle agitation. The reaction was started by the addition of 20 μL of a 1:4 dilution of vesicles. The final total reaction volume was 100 μL. The reaction rates were measured on a Gemini plate reader with an excitation wavelength of 488 nm and an emission of 530 nm. Readings were taken every 20 seconds for 10 min with agitation between each reading. The slope of the linear portion of the readout was used to calculate the rate of the reaction.

Endothelial lipase (EL), sequence (Q9Y5X9 21-500): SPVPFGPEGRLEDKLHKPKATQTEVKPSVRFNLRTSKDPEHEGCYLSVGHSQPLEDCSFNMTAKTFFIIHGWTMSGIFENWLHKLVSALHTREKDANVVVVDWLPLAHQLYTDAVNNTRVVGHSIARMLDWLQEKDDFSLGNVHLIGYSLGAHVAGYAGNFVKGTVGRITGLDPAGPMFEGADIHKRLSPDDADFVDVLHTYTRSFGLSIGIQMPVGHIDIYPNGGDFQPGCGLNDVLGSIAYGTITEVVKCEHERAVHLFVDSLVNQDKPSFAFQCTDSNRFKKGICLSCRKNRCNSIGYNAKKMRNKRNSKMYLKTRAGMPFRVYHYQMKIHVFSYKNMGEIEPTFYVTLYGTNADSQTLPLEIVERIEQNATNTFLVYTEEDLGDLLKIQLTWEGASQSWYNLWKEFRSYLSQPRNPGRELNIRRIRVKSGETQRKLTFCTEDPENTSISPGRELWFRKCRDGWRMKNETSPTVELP

IC50 [nM] | SMILES
20 | CC(C)(C)CN1CC(c2nnc(C(=O)c3nc4ccc(-c5ccccc5)cc4s3)o2)C1 [Example 42]
25 | NC(=O)NCc1nnc(C(=O)c2nc3ccc(-c4ccccc4)cc3s2)o1 [Example 49, 1-((5-(6-Phenylbenzo[d]thiazole-2-carbonyl)-1,3,4-oxadiazol-2-yl)methyl)urea]
< 10 | O=C(Cc1nnc(C(=O)c2nc3ccc(-c4ccccc4)cc3s2)o1)NC1CC1 [Example 50, N-Cyclopropyl-2-(5-(6-phenylbenzo[d]thiazole-2-carbonyl)-1,3,4-oxadiazol-2-yl)acetamide]
110 | COCCNc1nnc(C(=O)c2nc3ccc(-c4ccccc4)cc3s2)o1 [Example 52, (5-((2-methoxyethyl)amino)-1,3,4-oxadiazol-2-yl)(6-phenylbenzo[d]thiazol-2-yl)methanone]
< 10 | O=C(c1nnc(N[C@H]2CCNC2=O)o1)c1nc2ccc(-c3ccccc3)cc2s1 [Example 53, (S)-3-((5-(6-phenylbenzo[d]thiazole-2-carbonyl)-1,3,4-oxadiazol-2-yl)amino)pyrrolidin-2-one]
46 | O=C(c1nnc(N[C@@H]2CCNC2=O)o1)c1nc2ccc(-c3ccccc3)cc2s1 [Example 56, (R)-3-((5-(6-phenylbenzo[d]thiazole-2-carbonyl)-1,3,4-oxadiazol-2-yl)amino)pyrrolidin-2-one]
22 | O=C(c1nnc(N[C@H]2CCOC2=O)o1)c1nc2ccc(-c3ccccc3)cc2s1 [Example 57, (S)-3-((5-(6-phenylbenzo[d]thiazole-2-carbonyl)-1,3,4-oxadiazol-2-yl)amino)dihydrofuran-2(3H)-one]
104 | NC(=O)CNc1nnc(C(=O)c2nc3ccc(-c4ccccc4)cc3s2)o1 [Example 58, 2-((5-(6-phenylbenzo[d]thiazole-2-carbonyl)-1,3,4-oxadiazol-2-yl)amino) acetamide]
49 | O=C(c1nnc(NCCc2ccccc2)o1)c1nc2ccc(-c3ccc(F)cc3)cc2s1 [Example 59, (6-(4-fluorophenyl)benzo[d]thiazol-2-yl)(5-(phenethylamino)-1,3,4-oxadiazol-2-yl)methanone]
130 | CC(C)(C)OC(=O)CNc1nnc(C(=O)c2nc3ccc(-c4ccccc4)cc3s2)o1 [Example 67, tert-butyl 2-((5-(6-phenylbenzo[d]thiazole-2-carbonyl)-1,3,4-oxadiazol-2-yl)amino)acetate]
27 | O=C(c1nnc(N[C@H](CCO)C(=O)O)o1)c1nc2ccc(-c3ccccc3)cc2s1 [Example 68, (R)-4-hydroxy-2-((5-(6-phenylbenzo[d]thiazole-2-carbonyl)-1,3,4-oxadiazol-2-yl)amino)butanoic acid]
190 | CN1CCC(Nc2nnc(C(=O)c3nc4ccc(-c5ccccc5)cc4s3)o2)C1=O (stereo not shown) [Example 70, 1-methyl-3-((5-(6-phenylbenzo[d]thiazole-2-carbonyl)-1,3,4-oxadiazol-2-yl)amino)pyrrolidin-2-one]
22 | CN1CCC(Nc2nnc(C(=O)c3nc4ccc(-c5ccccc5)cc4s3)o2)C1=O (stereo not shown) [Example 71, 1-methyl-3-((5-(6-phenylbenzo[d]thiazole-2-carbonyl)-1,3,4-oxadiazol-2-yl)amino)pyrrolidin-2-one]
88 | NS(=O)(=O)CCNc1nnc(C(=O)c2nc3ccc(-c4ccccc4)cc3s2)o1 [Example 72, 2-((5-(6-phenylbenzo[d]thiazole-2-carbonyl)-1,3,4-oxadiazol-2-yl)amino)ethanesulfonamide]
180 | O=C(c1nnc(NCCc2ccncc2)o1)c1nc2ccc(-c3ccccc3)cc2s1 [Example 73, (6-phenylbenzo[d]thiazol-2-yl)(5-((2-(pyridin-4-yl)ethyl)amino)-1,3,4-oxadiazol-2-yl)methanone]
150 | CC(C)NC(=O)CNc1nnc(C(=O)c2nc3ccc(-c4ccccc4)cc3s2)o1 [Example 74, N-isopropyl-2-((5-(6-phenylbenzo [d]thiazole-2-carbonyl)-1,3,4-oxadiazol-2-yl)amino)acetamide]
28 | NC(=O)[C@@H](CCC(F)(F)F)Nc1nnc(C(=O)c2nc3ccc(-c4ccccc4)cc3s2)o1 [Example 75, (R)-5,5,5-trifluoro-2-((5-(6-phenylbenzo[d]thiazole-2-carbonyl)-1,3,4-oxadiazol-2-yl)amino) pentanamide]
36 | O=C(c1nnc(NCCc2cccnc2)o1)c1nc2ccc(-c3ccccc3)cc2s1 [Example 76, (6-phenylbenzo[d]thiazol-2-yl)(5-((2-(pyridin-3-yl)ethyl)amino)-1,3,4-oxadiazol-2-yl)methanone]

Further lines, the compound ahead of its results:

SMILES | IC50 [nM]
CC(C)N1C(=O)NC(C)(Cc2nnc(C(=O)c3nc4ccc(-c5ccccc5)cc4s3)o2)C1=O (stereo not shown) [Example 39, 3-isopropyl-5-methyl-5-((5-(6-phenylbenzo-[d]thiazole-2-carbonyl)-1,3,4-oxadiazol-2-yl)methyl)-imidazol-idine-2,4-dione] | < 10
O=C(c1nnc(CC2NC(=O)N(c3ccccc3)C2=O)o1)c1nc2ccc(-c3ccccc3)cc2s1 (stereo not shown) [Example 41, 3-phenyl-5-((5-(6-phenylbenzo[d]thiazole-2-carbonyl)-1,3,4-oxadiazol-2-yl)methyl)-imidazol-idine-2,4-dione] | 16
CC(C)(C)CN1CCC(c2nnc(C(=O)c3nc4ccc(-c5ccccc5)cc4s3)o2)CC1 [Example 45, (5-(1-Neopentylpiperidin-4-yl)-1,3,4-oxadiazol-2-yl)(6-phenylbenzo[d]thiazol-2-yl)methanone] | 14
COc1nc(-c2nnc(C(=O)c3nc4ccc(-c5ccccc5)cc4s3)o2)c(O)c(=O)[nH]1 [Example 47, 5-Hydroxy-2-methoxy-6-(5-(6-phenylbenzo[d]thiazole-2-carbonyl)-1,3,4-oxadiazol-2-yl)pyrimidin-4(3H)-one] | 19
NC(=O)c1ccc(-c2ccc3nc(C(=O)c4nnc(N[C@H]5CCNC5=O)o4)sc3c2)cc1 [Example 51, (S)-4-(2-(5-((2-Oxopyrrolidin-3-yl)amino)-1,3,4-oxadiazole-2-carbonyl)benzo[d]thiazol-6-yl)benzamide] | < 10
O=C(c1nnc(N[C@H]2CCNC2=O)o1)c1nc2ccc(-c3ccc(F)cc3)cc2s1 [Example 54, (S)-3-((5-(6-(4-fluorophenyl)benzo [d]thiazole-2-carbonyl)-1,3,4-oxadiazol-2-yl)amino)pyrrolidin-2-one] | < 10
O=C(c1nnc(N[C@H]2CCNC2=O)o1)c1nc2c(F)cc(-c3ccccc3)cc2s1 [Example 55, (S)-3-((5-(4-fluoro-6-phenylbenzo[d]thiazole-2-carbonyl)-1,3,4-oxadiazol-2-yl)amino)pyrrolidin-2-one] | 10
O=C(c1nnc(NCCc2ccc(F)cc2)o1)c1nc2ccc(-c3ccc(F)cc3)cc2s1 [Example 60, (5-((4-fluorophenethyl)amino)-1,3,4-oxadiazol-2-yl)(6-(4-fluorophenyl)benzo[d]thiazol-2-yl)methanone] | 56
COC(=O)[C@H](COC(C)(C)C)Nc1nnc(C(=O)c2nc3ccc(-c4ccc(F)cc4)cc3s2)o1 [Example 61, (S)-methyl 3-(tert-butoxy)-2-((5-(6-(4-fluorophenyl)benzo[d]thiazole-2-carbonyl)-1,3,4-oxadiazol-2-yl)amino)propanoate] | 140
COc1ccc(CCNc2nnc(C(=O)c3nc4ccc(-c5ccc(F)cc5)cc4s3)o2)cc1 [Example 62, (6-(4-fluorophenyl)benzo[d]thiazol-2-yl)(5-((4-methoxyphenethyl)amino)-1,3,4-oxadiazol-2-yl)methanone] | 240
O=C(c1nnc(NCCc2ccccc2F)o1)c1nc2ccc(-c3ccc(F)cc3)cc2s1 [Example 63, (5-((2-fluorophenethyl)amino)-1,3,4-oxadiazol-2-yl)(6-(4-fluorophenyl)benzo[d]thiazol-2-yl)methanone] | 290
O=C(c1nnc(NCCc2ccc(Cl)cc2)o1)c1nc2ccc(-c3ccc(F)cc3)cc2s1 [Example 64, (5-((4-chlorophenethyl)amino)-1,3,4-oxadiazol-2-yl)(6-(4-fluorophenyl)benzo[d]thiazol-2-yl)methanone] | 6.6
C[C@H](Nc1nnc(C(=O)c2nc3ccc(-c4ccc(F)cc4)cc3s2)o1)c1ccc(Cl)cc1 [Example 65, (S)-(5-((1-(4-chlorophenyl)ethyl)amino)-1,3,4-oxadiazol-2-yl)(6-(4-fluorophenyl)benzo[d]thiazol-2-yl)methanone] | 420
O=C(c1nnc(NC2CC2)o1)c1nc2ccc(-c3ccc(F)cc3)cc2s1 [Example 66, (5-(cyclopropylamino)-1,3,4-oxadiazol-2-yl)(6-(4-fluorophenyl)benzo[d]thiazol-2-yl)methanone] | 290
COc1ccc(CNc2nnc(C(=O)c3nc4ccc(-c5ccccc5)cc4s3)o2)c(OC)c1 [Example 69] | 310
O=C(c1nnc(N2CC[C@@H](c3ccccc3)C2)o1)c1nc2ccc(-c3ccccc3)cc2s1 [Example 79, (S)-(6-phenylbenzo[d]thiazol-2-yl)(5-(3-phenylpyrrolidin-1-yl)-1,3,4-oxadiazol-2-yl)methanone] | 310
